Assay results from PubChem BioAssay AID1259407 (Chemical Carcinogenesis Research Information System (CCRIS), 2018).
Activity calls are given as the source filed them. No rule for the calls is given here.

System: CCRIS mutagenicity, Ames/micronucleus/aberration tests
Assay: CCRIS mutagenicity studies
[1] = Test System: AMES SALMONELLA TYPHIMURIUM, Strain/Indicator: TA98, Metabolic Activation: NONE, Method: PREINCUBATION
[2] = Test System: AMES SALMONELLA TYPHIMURIUM, Strain/Indicator: TA100, Metabolic Activation: NONE, Method: PREINCUBATION
[3] = Test System: AMES SALMONELLA TYPHIMURIUM, Strain/Indicator: TA1535, Metabolic Activation: NONE, Method: PREINCUBATION
[4] = Test System: AMES SALMONELLA TYPHIMURIUM, Strain/Indicator: TA1537, Metabolic Activation: NONE, Method: PREINCUBATION

`O=C(N[C@@H](Cc1ccc(Cl)cc1)C(=O)O)OCc1ccccc1` was tested, and the mutagenic call (Test System: AMES SALMONELLA TYPHIMURIUM, Strain/Indicator: TA98, Metabolic Activation: NONE) was “inactive; negative”, the mutagenic call (Test System: AMES SALMONELLA TYPHIMURIUM, Strain/Indicator: TA100, Metabolic Activation: NONE) was “active; positive” and the mutagenic call (Test System: AMES SALMONELLA TYPHIMURIUM, Strain/Indicator: TA1535, Metabolic Activation: NONE) was “inactive; negative”. For the same molecule, the mutagenic call (Test System: AMES SALMONELLA TYPHIMURIUM, Strain/Indicator: TA1537, Metabolic Activation: NONE) was “inactive; negative”, the mutagenic call (Test System: B. SUBTILIS, Strain/Indicator: BD190 REC, Metabolic Activation: NONE, Method: SPOT TEST) was “active; positive” and the mutagenic call (Test System: E. COLI, Strain/Indicator: AB2462 UVRA, Metabolic Activation: NONE, Method: SPOT TEST) was “active; positive”. For the same molecule, the mutagenic call (Test System: E. COLI, Strain/Indicator: WP6 POLA, Metabolic Activation: NONE, Method: SPOT TEST) was “inactive; negative”.

For `NNc1nncc2ccncc12`, the mutagenic call [1] was “active; positive”, the mutagenic call (Test System: AMES SALMONELLA TYPHIMURIUM, Strain/Indicator: TA98, Metabolic Activation: RAT, LIVER, S-9, PCB, Method: PREINCUBATION) was “active; positive” and the mutagenic call [2] was “active; positive”. The mutagenic call (Test System: AMES SALMONELLA TYPHIMURIUM, Strain/Indicator: TA100, Metabolic Activation: RAT, LIVER, S-9, PCB, Method: PREINCUBATION) was “active; positive”.

For `O=c1ccc(=O)[nH][nH]1`, the mutagenic call (End Point: IN VITRO CHROMOSOMAL ABERRATIONS, Test System: HUMAN PERIPHERAL BLOOD LYMPHOCYTES, Metabolic Activation: NONE) was “inactive; negative”, the mutagenic call (End Point: IN VITRO MICRONUCLEUS, Test System: HUMAN PERIPHERAL BLOOD LYMPHOCYTES, Metabolic Activation: NONE) was “inactive; negative” and the mutagenic call (End Point: IN VITRO MICRONUCLEUS, Test System: HUMAN PERIPHERAL BLOOD LYMPHOCYTES, Metabolic Activation: S-9) was “inactive; negative”. The mutagenic call (Test System: AMES SALMONELLA TYPHIMURIUM, Strain/Indicator: TA98, Metabolic Activation: HAMSTER, LIVER, S-9, AROCLOR 1254 (10%), Method: PREINCUBATION) was “inactive; negative”, the mutagenic call [1] was “inactive; negative” and the mutagenic call (Test System: AMES SALMONELLA TYPHIMURIUM, Strain/Indicator: TA98, Metabolic Activation: RAT, LIVER, S-9, AROCLOR 1254 (10%), Method: PREINCUBATION) was “inactive; negative”. The mutagenic call (Test System: AMES SALMONELLA TYPHIMURIUM, Strain/Indicator: TA100, Metabolic Activation: HAMSTER, LIVER, S-9, AROCLOR 1254 (10%), Method: PREINCUBATION) was “inactive; negative”, the mutagenic call [2] was “inactive; negative” and the mutagenic call (Test System: AMES SALMONELLA TYPHIMURIUM, Strain/Indicator: TA100, Metabolic Activation: RAT, LIVER, S-9, AROCLOR 1254 (10%), Method: PREINCUBATION) was “inactive; negative”. For the same molecule, the mutagenic call (Test System: AMES SALMONELLA TYPHIMURIUM, Strain/Indicator: TA1535, Metabolic Activation: HAMSTER, LIVER, S-9, AROCLOR 1254 (10%), Method: PREINCUBATION) was “inactive; negative”, the mutagenic call [3] was “inactive; negative” and the mutagenic call (Test System: AMES SALMONELLA TYPHIMURIUM, Strain/Indicator: TA1535, Metabolic Activation: RAT, LIVER, S-9, AROCLOR 1254 (10%), Method: PREINCUBATION) was “inactive; negative”. For the same molecule, the mutagenic call (Test System: AMES SALMONELLA TYPHIMURIUM, Strain/Indicator: TA1537, Metabolic Activation: HAMSTER, LIVER, S-9, AROCLOR 1254 (10%), Method: PREINCUBATION) was “inactive; negative”, the mutagenic call [4] was “inactive; negative” and the mutagenic call (Test System: AMES SALMONELLA TYPHIMURIUM, Strain/Indicator: TA1537, Metabolic Activation: RAT, LIVER, S-9, AROCLOR 1254 (10%), Method: PREINCUBATION) was “inactive; negative”.

With `Cc1ccccc1C(N)=O` the mutagenic call (Test System: AMES SALMONELLA TYPHIMURIUM, Strain/Indicator: TA97, Metabolic Activation: HAMSTER, LIVER, S-9, AROCLOR 1254 (10 OR 30%), Method: PREINCUBATION) was “inactive; negative”, the mutagenic call (Test System: AMES SALMONELLA TYPHIMURIUM, Strain/Indicator: TA97, Metabolic Activation: NONE, Method: PREINCUBATION) was “inactive; negative” and the mutagenic call (Test System: AMES SALMONELLA TYPHIMURIUM, Strain/Indicator: TA97, Metabolic Activation: RAT, LIVER, S-9, AROCLOR 1254 (10 OR 30%), Method: PREINCUBATION) was “inactive; negative”. For the same molecule, the mutagenic call (Test System: AMES SALMONELLA TYPHIMURIUM, Strain/Indicator: TA98, Metabolic Activation: HAMSTER, LIVER, S-9, AROCLOR 1254 (10 OR 30%), Method: PREINCUBATION) was “inactive; negative”, the mutagenic call [1] was “inactive; negative” and the mutagenic call (Test System: AMES SALMONELLA TYPHIMURIUM, Strain/Indicator: TA98, Metabolic Activation: RAT, LIVER, S-9, AROCLOR 1254 (10 OR 30%), Method: PREINCUBATION) was “inactive; negative”. The mutagenic call (Test System: AMES SALMONELLA TYPHIMURIUM, Strain/Indicator: TA100, Metabolic Activation: HAMSTER, LIVER, S-9, AROCLOR 1254 (10 OR 30%), Method: PREINCUBATION) was “inactive; negative”, the mutagenic call [2] was “inactive; negative” and the mutagenic call (Test System: AMES SALMONELLA TYPHIMURIUM, Strain/Indicator: TA100, Metabolic Activation: RAT, LIVER, S-9, AROCLOR 1254 (10 OR 30%), Method: PREINCUBATION) was “inactive; negative”. For the same molecule, the mutagenic call (Test System: AMES SALMONELLA TYPHIMURIUM, Strain/Indicator: TA1535, Metabolic Activation: HAMSTER, LIVER, S-9, AROCLOR 1254 (10 OR 30%), Method: PREINCUBATION) was “inactive; negative”, the mutagenic call [3] was “inactive; negative” and the mutagenic call (Test System: AMES SALMONELLA TYPHIMURIUM, Strain/Indicator: TA1535, Metabolic Activation: RAT, LIVER, S-9, AROCLOR 1254 (10 OR 30%), Method: PREINCUBATION) was “inactive; negative”.

For `O=Nc1ccc2ccc3c4c(cc5ccc1c2c53)CCCC4`, the mutagenic call (Test System: AMES SALMONELLA TYPHIMURIUM, Strain/Indicator: TA98, Metabolic Activation: NONE, Method: STANDARD PLATE) was “active; positive”.

In the case of `Cc1nc2ccc3ccc4ccc(O)cc4c3c2n1C`, the mutagenic call (Test System: AMES SALMONELLA TYPHIMURIUM, Strain/Indicator: TA98, Metabolic Activation: RAT, LIVER, S-9, AROCLOR, Method: STANDARD PLATE) is reported as “active; positive”.

In the case of `CCC(=O)CN(CC(=O)CC)N=O`, the mutagenic call (Test System: CHINESE HAMSTER V-79, Strain/Indicator: V-79/OUABAIN, Metabolic Activation: HAMSTER, HEPATOCYTES, Method: CELL-MEDIATED) is reported as “active; positive”.

`C=C(CC(=O)OCC)C(=O)O` was tested, and the mutagenic call (Test System: Chinese Hamster ovary (CHO) cells, Metabolic Activation: None, Method: HGPRT/6-Thioguanine) was “inactive; negative”.

With `CC1=CC(=C(c2ccc(N)cc2)c2ccc(N)cc2)C=CC1=N` the mutagenic call [1] was “inactive; negative”, the mutagenic call (Test System: AMES SALMONELLA TYPHIMURIUM, Strain/Indicator: TA98, Metabolic Activation: RAT LIVER S-9, PHENOBARBITAL AND BETA-NAPHTHOFLAVONE, Method: PREINCUBATION) was “inactive; negative” and the mutagenic call [2] was “inactive; negative”. The mutagenic call (Test System: AMES SALMONELLA TYPHIMURIUM, Strain/Indicator: TA100, Metabolic Activation: RAT LIVER S-9, PHENOBARBITAL AND BETA-NAPHTHOFLAVONE, Method: PREINCUBATION) was “inactive; negative”, the mutagenic call (Test System: AMES SALMONELLA TYPHIMURIUM, Strain/Indicator: TA100, Method: PREINCUBATION) was “active; positive” and the mutagenic call [3] was “inactive; negative”. The mutagenic call (Test System: AMES SALMONELLA TYPHIMURIUM, Strain/Indicator: TA1535, Metabolic Activation: RAT LIVER S-9, PHENOBARBITAL AND BETA-NAPHTHOFLAVONE, Method: PREINCUBATION) was “inactive; negative”, the mutagenic call [4] was “inactive; negative” and the mutagenic call (Test System: AMES SALMONELLA TYPHIMURIUM, Strain/Indicator: TA1537, Metabolic Activation: RAT LIVER S-9, PHENOBARBITAL AND BETA-NAPHTHOFLAVONE, Method: PREINCUBATION) was “inactive; negative”. The mutagenic call (Test System: AMES SALMONELLA TYPHIMURIUM, Strain/Indicator: TA1538, Metabolic Activation: NONE, Method: PREINCUBATION) was “inactive; negative”, the mutagenic call (Test System: AMES SALMONELLA TYPHIMURIUM, Strain/Indicator: TA1538, Metabolic Activation: RAT LIVER S-9, PHENOBARBITAL AND BETA-NAPHTHOFLAVONE, Method: PREINCUBATION) was “inactive; negative” and the mutagenic call (Test System: E.COLI, Strain/Indicator: WP2UVRA, Metabolic Activation: NONE, Method: PREINCUBATION) was “inactive; negative”. The mutagenic call (Test System: E.COLI, Strain/Indicator: WP2UVRA, Metabolic Activation: RAT LIVER S-9, PHENOBARBITAL AND BETA-NAPHTHOFLAVONE, Method: PREINCUBATION) was “inactive; negative”.

In the case of `CCNC(=O)CNC(=O)C=[N+]=[N-]`, the mutagenic call (Test System: UDS RODENT CELLS, Strain/Indicator: THY INCORP (NON-S-PHASE), Metabolic Activation: NONE, Method: AUTORADIOGRAPHY) is reported as “active; positive”.
